Test results: ChEMBL document CHEMBL3244408, “Synthesis and analgetic activity of some benzomorphan analogues” (1978)

System: Mus musculus
Experiment: Analgetic activity in sc dosed albino DD mouse by tail pressure stimuli method
Type: functional

| SMILES | ED50 [mg/kg] |
| --- | --- |
| Br.CN1CC2CC1Cc1ccc(O)cc12 (stereo unspecified) | 43 |
| CC(O)C(=O)O.CN1CC2Cc3ccc(O)cc3C1C2 (stereo unspecified) | 29.1 |
| CN1CCC2Cc3ccc(O)cc3C1C2 (stereo unspecified) | 17.2 |
| CN1CCCC2Cc3ccc(O)cc3C1C2.Cl.O (stereo unspecified) | 15 |
| Br.CN1CCCC2(C)CC1Cc1ccc(O)cc12 (stereo unspecified) | 4.1 |
| Br.C[C@@H]1C2Cc3ccc(O)cc3C1(C)CCN(C)C2 (stereo partly specified) | 1 |
| Br.CN1CCC2Cc3ccc(O)cc3C(C2)C1 (stereo unspecified) | 38.8 |
| Br.CN1CC2Cc3ccc(O)cc3C(C)(C2)C1 (stereo unspecified) | 8.4 |
| CC1NCC2Cc3ccc(O)cc3C1C2 (stereo unspecified) | 4.5 |
| COc1ccc2c3c1O[C@H]1[C@@H](O)C=C[C@H]4[C@@H](C2)N(C)CC[C@@]341.COc1ccc2c3c1O[C@H]1[C@@H](O)C=C[C@H]4[C@@H](C2)N(C)CC[C@@]341.O.O=P(O)(O)O.O=P(O)(O)O [CODEINE PHOSPHATE] | 9.2 |
| CN1CC[C@]23c4c5ccc(O)c4O[C@H]2[C@@H](O)C=C[C@H]3[C@H]1C5.Cl [MORPHINE HYDROCHLORIDE] | 1.2 |
